Molecular target: T1, human TGR5 (Homo sapiens, UniProt Q8TDU6)
T1 construct: expressed in transfected cells
T1 sequence (Q8TDU6 1-330): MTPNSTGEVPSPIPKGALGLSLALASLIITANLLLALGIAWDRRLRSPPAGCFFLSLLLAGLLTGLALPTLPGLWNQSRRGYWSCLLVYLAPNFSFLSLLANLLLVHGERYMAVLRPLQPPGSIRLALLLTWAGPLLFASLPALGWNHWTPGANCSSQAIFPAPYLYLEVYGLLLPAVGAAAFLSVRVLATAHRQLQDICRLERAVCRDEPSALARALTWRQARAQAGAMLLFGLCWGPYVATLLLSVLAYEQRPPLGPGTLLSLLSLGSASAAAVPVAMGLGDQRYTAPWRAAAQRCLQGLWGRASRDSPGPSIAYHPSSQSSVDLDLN
Experiment: cAMP production assay in HEK293 cells stably expressing TGR5 (LANCE cAMP, TR-FRET)
Format: cell-based
Settings: stimulated with test compounds for 30 minutes, 1 mM IBMX, read-out: cAMP Production in 293-TGR5 Cells
Procedure: HEK293 cells stably expressing TGR5 (HEK293-TGR5) were established by stably transfecting HEK-293 cells with an expression vector (pcDNA 3.1, Invetrogen) inserted with human TGR5 cDNA using Fugene6 (Roche, Indianapolis, Ind.) according to conventional methods. Cells were grown in DMEM (invitrogen, Carlsbad, Calif.) supplemented with 10% FBS, 1% penicillin/streptomycin under geneticin selection. The presence of TGR5 transcripts in these cells was confirmed using branched DNA (bDNA, Genospectra, Inc., Fremont Calif.) following the manufacturer's protocol and using specific probes for human TGR5. cAMP production assay was performed in high throughput 1536 well format using LANCE cAMP detection kit (Perkin Elmer Inc., Boston, Mass.) according to the manufacturer's protocol. Briefly, HEK293-TGR5 cells were harvested using non-enzymatic cell dissociation buffer (Invitrogen, Carlsbad, Calif.) and suspended in DMEM supplemented with 0.1% FBS at a density of 800,000 cells/ml. Alexa antibody was added to the cell suspension, and 4 ul of the mixture was dispensed in white opaque tissue culture treated Greiner 1536 well plates (USA Scientific, Inc., Ocala, Fla.). After an overnight incubation at 37 C in an atmosphere of 10% CO2 and 95% humidity, 1 ul of 5 mM IBMX (Sigma, St. Louis, Mo.) solution in DMEM was dispensed for a final concentration of 1 mM. Cells were then stimulated with test compounds for 30 minutes, after which time 5 ul of detection reagent was added and incubated for 1-7 hrs at room temperature. TR-FRET signal was detected using the Viewlux (Perkin Elmer Inc., Boston Mass.). EC50 values were determined using Graph Pad Prizm analysis (GraphPad Software, Inc). The EC50 values for a wide range of bile acids generated from this assay were in agreement with the values published in the scientific literature. […] The symbol (+) denotes an EC50 value of ≦10 μM while the symbol (−) denotes an EC50 value of >10 μM (see Table 1).

EC50 [µM] | SMILES
≤ 10 | COc1ccc(-c2nc3ncccc3c(=O)n2NCc2ccc(Br)cc2)cc1 [Example 5, 3-{[(4-Bromophenyl)methyl]amino}-2-(4-methoxyphenyl)-3H,4H-pyrido[2,3-d]pyrimidin-4-one]
≤ 10 | COc1cncc(-c2nc3ncccc3c(=O)n2NCc2ccc(Cl)cc2)c1 [Example 9, 3-{[(4-Chlorophenyl)methyl]amino}-2-(5-methoxypyridin-3-yl)-3H,4H-pyrido[2,3-d]pyrimidin-4-one]
≤ 10 | O=c1c2cccnc2nc(-c2ccc(F)cc2)n1NCc1ccc(Cl)cc1 [Example 10, 3-{[(4-Chlorophenyl)methyl]amino}-2-(4-fluorophenyl)-3H,4H-pyrido[2,3-d]pyrimidin-4-one]
≤ 10 | O=c1c2cccnc2nc(-c2ccc(F)cc2)n1NCc1ccc(C(F)(F)F)cc1 [Example 11, 2-(4-Fluorophenyl)-3-({[4-(trifluoromethyl)phenyl]methyl}amino)-3H,4H-pyrido[2,3-d]pyrimidin-4-one]
≤ 10 | COc1cc(-c2nc3ncccc3c(=O)n2NCc2ccc(Cl)cc2)ccc1O [Example 15, 3-{[(4-Chlorophenyl)methyl]amino}-2-(4-hydroxy-3-methoxyphenyl)-3H,4H-pyrido[2,3-d]pyrimidin-4-one]
≤ 10 | COc1cncc(-c2nc3cnccc3c(=O)n2NCc2ccc(Cl)cc2)c1 [Example 16, 3-{[(4-Chlorophenyl)methyl]amino}-2-(5-methoxypyridin-3-yl)-3H,4H-pyrido[3,4-d]pyrimidin-4-one]
≤ 10 | Cc1cc(-c2nc3cnccc3c(=O)n2NCc2ccc(Cl)cc2)ccc1[N+](=O)[O-] [Example 19, 3-{[(4-Chlorophenyl)methyl]amino}-2-(3-methyl-4-nitrophenyl)-3H,4H-pyrido[3,4-d]pyrimidin-4-one]
≤ 10 | Cc1cc(-c2nc3cnccc3c(=O)n2NCc2ccc(Cl)cc2)ccc1O [Example 21, 3-{[(4-Chlorophenyl)methyl]amino}-2-(4-hydroxy-3-methylphenyl)-3H,4H-pyrido[3,4-d]pyrimidin-4-one]
≤ 10 | O=c1c2ncccc2nc(-c2ccc(F)cc2)n1NCc1ccc(Br)cc1 [Example 25, 3-{[(4-Bromophenyl)methyl]amino}-2-(4-fluorophenyl)-3H,4H-pyrido[3,2-d]pyrimidin-4-one]
≤ 10 | COc1cncc(-c2nc3ccsc3c(=O)n2NCc2ccc(Cl)cc2)c1 [Example 27, 3-{[(4-Chlorophenyl)methyl]amino}-2-(5-methoxypyridin-3-yl)-3H,4H-thieno[3,2-d]pyrimidin-4-one]
≤ 10 | O=c1c2cncnc2nc(-c2ccc(F)cc2)n1NCc1ccc(Cl)cc1 [Example 30, 3-{[(4-Chlorophenyl)methyl]amino}-2-(4-fluorophenyl)-3H,4H-pyrimido[4,5-d][1,3]diazin-4-one]
≤ 10 | O=c1c2ccsc2nc(-c2ccc(F)cc2)n1NCc1ccc(Cl)cc1 [Example 32, 3-{[(4-Chlorophenyl)methyl]amino}-2-(4-fluorophenyl)-3H,4H-thieno[2,3-d]pyrimidin-4-one]
≤ 10 | COc1cncc(-c2nc3sccc3c(=O)n2NCc2ccc(Cl)cc2)c1 [Example 34, 3-{[(4-Chlorophenyl)methyl]amino}-2-(5-methoxypyridin-3-yl)-3H,4H-thieno[2,3-d]pyrimidin-4-one]

Further lines, the molecule ahead of its results:

SMILES | EC50 [µM]
O=c1c2cccnc2nc(-c2cncc(Cl)c2)n1NCc1ccc(Cl)cc1F [Example 1, 3-{[(4-Chloro-2-fluorophenyl)methyl]amino}-2-(5-chloropyridin-3-yl)-3H,4H-pyrido[2,3-d]pyrimidin-4-one] | ≤ 10
O=c1c2cccnc2nc(-c2ccccc2F)n1NCc1ccc(Cl)cc1 [Example 2, 3-{[(4-Chlorophenyl)methyl]amino}-2-(2-fluorophenyl)-3H,4H-pyrido[2,3-d]pyrimidin-4-one] | ≤ 10
COc1cccc(-c2nc3ncccc3c(=O)n2NCc2ccc(Cl)cc2)c1 [Example 3, 3-{[(4-Chlorophenyl)methyl]amino}-2-(3-methoxyphenyl)-3H,4H-pyrido[2,3-d]pyrimidin-4-one] | ≤ 10
O=c1c2cccnc2nc(-c2ccc(F)cc2)n1NCc1ccc(Br)cc1 [Example 4, 3-{[(4-Bromophenyl)methyl]amino}-2-(4-fluorophenyl)-3H,4H-pyrido[2,3-d]pyrimidin-4-one] | ≤ 10
O=c1c2cccnc2nc(-c2ccc(O)cc2)n1NCc1ccc(Br)cc1 [Example 6, 3-{[(4-Bromophenyl)methyl]amino}-2-(4-hydroxyphenyl)-3H,4H-pyrido[2,3-d]pyrimidin-4-one] | ≤ 10
O=c1c2cccnc2nc(-c2cccnc2)n1NCc1ccc(Cl)cc1 [Example 7, 3-{[(4-Chlorophenyl)methyl]amino}-2-(pyridin-3-yl)-3H,4H-pyrido[2,3-d]pyrimidin-4-one] | ≤ 10
O=c1c2cccnc2nc(-c2cncc(Cl)c2)n1NCc1ccc(Cl)cc1 [Example 8, 3-{[(4-Chlorophenyl)methyl]amino}-2-(5-chloropyridin-3-yl)-3H,4H-pyrido[2,3-d]pyrimidin-4-one] | ≤ 10
O=c1c2cccnc2nc(-c2ccc(F)cc2)n1NCc1ccc(F)c(F)c1 [Example 12, 3-{[(3,4-Difluorophenyl)methyl]amino}-2-(4-fluorophenyl)-3H,4H-pyrido[2,3-d]pyrimidin-4-one] | ≤ 10
COc1cc(-c2nc3ncccc3c(=O)n2NCc2ccc(Br)cc2)ccc1C [Example 13, 3-{[(4-Bromophenyl)methyl]amino}-2-(3-methoxy-4-methylphenyl)-3H,4H-pyrido[2,3-d]pyrimidin-4-one] | ≤ 10
COc1cc(-c2nc3ncccc3c(=O)n2NCc2ccc(Cl)cc2)ccc1C [Example 14, 3-{[(4-Chlorophenyl)methyl]amino}-2-(3-methoxy-4-methylphenyl)-3H,4H-pyrido[2,3-d]pyrimidin-4-one] | ≤ 10
O=c1c2ccncc2nc(-c2ccc(F)cc2)n1NCc1ccc(Br)cc1 [Example 17, 3-{[(4-Bromophenyl)methyl]amino}-2-(4-fluorophenyl)-3H,4H-pyrido[3,4-d]pyrimidin-4-one] | ≤ 10
O=c1c2ccncc2nc(-c2cncc(Cl)c2)n1NCc1ccc(Cl)cc1 [Example 18, 3-{[(4-Chlorophenyl)methyl]amino}-2-(5-chloropyridin-3-yl)-3H,4H-pyrido[3,4-d]pyrimidin-4-one] | ≤ 10
Cc1cc(-c2nc3cnccc3c(=O)n2NCc2ccc(Cl)cc2)ccc1N [Example 20, 2-(4-Amino-3-methylphenyl)-3-{[(4-chlorophenyl)methyl]amino}-3H,4H-pyrido[3,4-d]pyrimidin-4-one] | ≤ 10
COc1cc(-c2nc3cnccc3c(=O)n2NCc2ccc(Cl)cc2)ccc1O [Example 22, 3-{[(4-Chlorophenyl)methyl]amino}-2-(4-hydroxy-3-methoxyphenyl)-3H,4H-pyrido[3,4-d]pyrimidin-4-one] | ≤ 10
O=c1c2cnccc2nc(-c2ccc(F)cc2)n1NCc1ccc(Cl)cc1 [Example 23, 3-{[(4-Chlorophenyl)methyl]amino}-2-(4-fluorophenyl)-3H,4H-pyrido[4,3-d]pyrimidin-4-one] | ≤ 10
O=c1c2ccsc2nc(-c2ccc(O)cc2)n1NCc1ccc(Br)cc1 [Example 26, 3-{[(4-Bromophenyl)methyl]amino}-2-(4-hydroxyphenyl)-3H,4H-thieno[2,3-d]pyrimidin-4-one] | ≤ 10
COc1cncc(-c2nc3ccsc3c(=O)n2NCC2CCC2)c1 [Example 28, 3-[(Cyclobutylmethyl)amino]-2-(5-methoxypyridin-3-yl)-3H,4H-thieno[3,2-d]pyrimidin-4-one] | ≤ 10
COc1cncc(-c2nc3nccnc3c(=O)n2NCc2ccc(Cl)cc2)c1 [Example 29, 3-{[(4-Chlorophenyl)methyl]amino}-2-(5-methoxypyridin-3-yl)-3,4-dihydropteridin-4-one] | ≤ 10
O=c1c2ccsc2nc(-c2ccc(F)cc2)n1NCc1ccc(Br)cc1 [Example 31, 3-{[(4-Bromophenyl)methyl]amino}-2-(4-fluorophenyl)-3H,4H-thieno[2,3-d]pyrimidin-4-one] | ≤ 10
O=c1c2ccsc2nc(-c2ccc(F)cc2)n1NCc1ccc(Cl)c(Cl)c1 [Example 33, 3-{[(3,4-Dichlorophenyl)methyl]amino}-2-(4-fluorophenyl)-3H,4H-thieno[2,3-d]pyrimidin-4-one] | ≤ 10

Reference: patent publication US20090105124A1, “HETEROCYCLIC MODULATORS OF TGR5” (Kalypsys, Inc., priority 2007, published 2009)
